Experiments:
[1] = test system: adjuvant-induced arthritis; assay: Experimental (adjuvant-induced) polyarthritis in rats, treatment of established arthritis; assay type: in vivo, rat; conditions: for Mean % Inhibition of Arthritis Score / Mean % Inhibition of Fore Paw Swelling / Mean % Inhibition of Rear Paw Swelling: per os, mg/kg per day: A-CSE 350, S-CSE 50, Aspirin 150 × 2, Ibuprofen 50, Naproxen 25; for Mean % Inhibition of Arthritis Score: days 10-13, day 14, independent observer; for Mean % Inhibition of Fore Paw Swelling / Mean % Inhibition of Rear Paw Swelling: days 10-13, measured day 14; for anti-inflammatory activity: tested at 50 mg/kg
[2] = test system: NSAID-induced gastric lesions; assay: Gastric injury caused by aspirin/NSAIDs in pre-sensitised (pre-inflamed) rats, gastroprotection assay; conditions: for incidence of gastric lesions and bleeding: pre-inflamed rats, aspirin 100 mg/kg, Naproxen 10 mg/kg, Ketoprofen 5 mg/kg orally, Piroxicam 5 mg/kg intraperitoneally
Experimental: This model comprises oral or parenteral non-steroidal anti-inflammatory drugs (NSAIDs) given to rats whose gastrointestinal mucosa is pre-sensitized by prior development of arthritis or oleyl alcohol-induced inflammation. The animals are pre-sensitized by injection of an arthritogenic adjuvant or 0.1 ml oleyl alcohol 5 days prior to the assay.
The disease stress was induced five days previously either by injecting an arthritigenic adjuvant or 0.1 ml oleyl alcohol into the tail base to incite severe local inflammation. […] A-CSE or S-CSE was given orally within 20 seconds of the aspirin/NSAID. The number (N) and severity (S, graded on a score of 0 to 4 based on increasing area of injury) of gastric lesions as well as the percentage incidence of animals (%I) with gastric damage was recorded. The lesion index (LI) was then calculated as: LI=N/n+S/n+%I/10, where n=number of animals per group.
Gastroprotective activity was assessed in fasted (overnight) arthritic rats challenged with 50 mg/kg Ibuprofen given orally to induce gastric bleeding. Test preparations, dispersed with Tween-20, were given orally 20 seconds prior to Ibuprofen.
The procedure is further elaborated in K. Rainsford and M. Whitehouse [J. Pharm.

[3] = test system: adjuvant arthritis (onset); assay: Arthritis-ablating activity: test material incorporated into the arthritigenic adjuvant; assay type: in vivo, female Dark Agouti rats; conditions: for activity in preventing (ablating) adjuvant arthritis: summary of Table 3; for effect on arthritis score (AS): most tested at 10 mg/rat, no effect = AS 2.5+
[4] = test system: carrageenan-induced paw edema; assay: Carrageenan-induced paw edema (acute inflammation); assay type: in vivo, rat; conditions: for ED50: Rattus norvegicus, oral, 45 minutes before carrageenan, read-out: effective dose for 50 percent reduction of the paw edema (ED50)
Experimental: To evaluate early i.e. rapid-acting therapeutic efficacy, carrageenan (1 mg in 0.1 ml saline) was injected into rear paws of rats to elicit a rapid onset (acute) inflammation. The ensuing paw edema was measured by the increase in paw thickness with a micrometer over the subsequent three hour period at hourly intervals.
The test drug formulations were given orally 45 minutes before injecting the carrageenan.

[5] = test system: production of prostaglandin E2; assay: Production of prostaglandin E2 by pig gastric (fundic) mucosal explants; assay type: cell-based; conditions: 10 μmol/L, pure samples
[6] = test system: adjuvant arthritis (onset); conditions: Haynes D R et al. Inflamm Res 45:159-165, 1996; cited from earlier work

SMILES: CC(=O)Oc1ccccc1C(=O)O [Aspirin]
- Mean % Inhibition of Arthritis Score [1]: 25%
- Mean % Inhibition of Fore Paw Swelling [1]: 24%
- Mean % Inhibition of Rear Paw Swelling [1]: 40%
- incidence of gastric lesions and bleeding [2]: 90%
- activity in preventing (ablating) adjuvant arthritis [3]: not shared
- ED50 [4]: 200 mg/kg

SMILES: COc1c2ccoc2cc2oc(=O)ccc12 [Bergapten]
- activity in preventing (ablating) adjuvant arthritis [3]: without such activity

SMILES: CCCCC1OC(=O)c2ccccc21 (stereo not shown) [Butylphthalide]
- anti-inflammatory activity [1]: no anti-inflammatory or gastroprotective activity
- gastroprotective activity ([2]; tested at 50 mg/kg): no anti-inflammatory or gastroprotective activity
- activity in preventing (ablating) adjuvant arthritis [3]: without such activity

SMILES: CC(C)Cc1ccc(C(C)C(=O)O)cc1 (stereo not shown) [Ibuprofen]
- suppression of arthritic paw swelling / inhibition of polyarthritis ([1]; four successive oral doses, Ibuprofen 30 mg/kg, A-CSE 50 mg/kg, S-CSE 5 mg/kg): 38%
- Mean % Inhibition of Arthritis Score [1]: 36%
- Mean % Inhibition of Fore Paw Swelling [1]: 39%
- Mean % Inhibition of Rear Paw Swelling [1]: 38%
- mean number of haemorrhagic lesions (+/−SD) ([2]; 50 mg/kg, free acid or Nurofen, suspension 5 ml/kg, pre-inflamed female Wistar rats, n=90): 42+/−06
- animals with no macroscopically detectable gastric bleeding ([2]; Ibuprofen 50 mg/kg with no celery (n=90 rats) or with celery extracts (n=67 rats)): 7%
- activity in preventing (ablating) adjuvant arthritis [3]: not shared
- inhibition of paw swelling ([4]; Ibuprofen 15 mg/kg, Ketoprofen 1 mg/kg, alone, n=6, not statistically significant): 19%
- ED50 [4]: 45 mg/kg

SMILES: C=C(C)[C@H]1CC=C(C)CC1 [Limonene]
- anti-inflammatory activity [1]: no anti-inflammatory or gastroprotective activity
- activity in preventing (ablating) adjuvant arthritis [3]: without such activity
- effect on production of prostaglandin E2 [5]: not

SMILES: COc1ccc2cc([C@H](C)C(=O)O)ccc2c1 [Naproxen]
- Mean % Inhibition of Arthritis Score [1]: 64%
- Mean % Inhibition of Fore Paw Swelling [1]: 36%
- Mean % Inhibition of Rear Paw Swelling [1]: 57%
- activity in preventing (ablating) adjuvant arthritis [3]: not shared

SMILES: CCCCCCCCCCC/C=C\CCCCC(=O)OC [Petroselenic acid methyl ester]
- activity in preventing (ablating) adjuvant arthritis [3]: without such activity

SMILES: CN1C(C(=O)Nc2ccccn2)=C(O)c2ccccc2S1(=O)=O [Piroxicam]
- incidence of gastric lesions and bleeding [2]: 90%

SMILES: Cn1cnc([N+](=O)[O-])c1Sc1ncnc2nc[nH]c12 [azathioprine]
- effect on arthritis score (AS) [3]: no effect

SMILES: O=C(O)CCCc1ccc(N(CCCl)CCCl)cc1 [chlorambucil]
- effect on arthritis score (AS) [3]: no effect

SMILES: Nc1ccc(S(=O)(=O)c2ccc(N)cc2)cc1 [dapsone]
- effect on arthritis score (AS) [3]: no effect

SMILES: O=C(O)c1ccccc1Nc1cc(Cl)ccc1C(=O)O [lobenzarit]
- ablating the onset of arthritis [6]: capable of ablating the onset of arthritis

SMILES: O=c1c(O)c(-c2cc(O)c(O)c(O)c2)oc2cc(O)cc(O)c12 [myricetin]
- effect on production of prostaglandin E2 [5]: inhibited

SMILES: O=c1c(O)c(-c2ccc(O)c(O)c2)oc2cc(O)cc(O)c12 [quercetin]
- effect on production of prostaglandin E2 [5]: inhibited
